Assay results taken from US11247976B2, “Synthetic ligands that modulate the activity of the RhlR quorum sensing receptor” (Wisconsin Alumni Research Foundation, priority 2016, dated 2022).
Like-named read-outs stand apart in the source and are kept apart here.

Experiments:
[1] = target: T1, RhlR (Pseudomonas aeruginosa, UniProt P54292); assay: E. coli RhlR reporter agonism assay (JLD271/pJN105R2/pSC11-rhlI*); assay type: cell-based, P. aeruginosa; details: for RhlR agonist potency in words: dose-response; for Emax: read-out: Maximum Activation (%); for RhlR agonist activity in words: single-concentration screen at 10 μM
T1 construct: expressed in transfected cells; host or cells: E. coli JLD271 (ΔsdiA) with pJN105R2 (arabinose-induced) and pSC11-rhlI*
T1 sequence (P54292 whole entry): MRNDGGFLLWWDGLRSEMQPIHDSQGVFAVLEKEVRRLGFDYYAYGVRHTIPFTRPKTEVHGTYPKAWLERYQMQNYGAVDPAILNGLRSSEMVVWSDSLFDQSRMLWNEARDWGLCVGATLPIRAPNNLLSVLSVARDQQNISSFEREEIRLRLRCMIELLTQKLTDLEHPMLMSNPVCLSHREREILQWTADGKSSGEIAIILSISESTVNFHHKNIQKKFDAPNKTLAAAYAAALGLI
Method: (§1) All media and reagents for bacterial culture were purchased from commercial sources. Bacteria were cultured in Luria-Bertani broth (LB) at 37° C. with shaking at 200 rpm unless otherwise noted. The bacterial reporter strains used for this study were (i) the heterologous E. coli strain JLD271 (ΔsdiA) harboring the RhlR expression plasmid pJN105R2 and the rhlI-lacZ transcriptional fusion reporter pSC11-rhlI*, (ii) the heterologous E. coli strain JLD271 (ΔsdiA) harboring the LasR expression plasmid pJN105L and the […] transcriptional fusion reporter pSC11, and (iii) the P. aeruginosa strain PAO-JP2 (ΔlasrhlI) harboring the rhlI-gfp transcriptional fusion reporter prhlI-LVAgfp. Reporter strains JLD271/pJN105R2/pSC11-rhlI* and JLD271/pJN105L/pSC11 were grown in LB containing 100 μg/mL ampicillin and 10 μg/mL gentamicin. Freezer stocks of bacterial strains were maintained at −80° C. in 1:1 LB:50% glycerol.
(§2) To evaluate the modulatory activities of library compounds on RhlR and LasR using E. coli reporters, the strains JLD271/pJN105R2/pSC11-rhlI* and JLD271/pJN105L/pSC11 were used, respectively, as previously described.^38, 51 The following modifications were used in the RhlR agonism reporter assay, non-native compounds (10 μM or 1 mM) were compared to 1 mM BHL as the positive control. Briefly, a subculture was prepared by diluting an overnight culture 1:10 with fresh media containing 100 μg/mL ampicillin and 10 μg/mL gentamicin, and was incubated until it had grown to OD600=0.45. In all assays, L-arabinose was added to a final concentration of 4 mg/mL to induce RhlR expression. For RhlR agonism assays, activities of test compounds were measured relative to 1 mM BHL (the concentration required to induce a maximal level of RhlR activity). For RhlR antagonism assays, test compounds were competed against a concentration of BHL approximately equal to its EC50 value (10 μM). Activity was measured relative to 10 μM BHL. Inhibition was calculated by subtracting 100% from the relative activity value. Thus, 0% inhibition mimics represents no competitive displacement of 10 μM BHL by a test compound. In all assays, modifications were made to the standard Miller assay protocol to accommodate the use of the chlorophenol red-β-D-galactopyranoside (CPRG) β-galactosidase substrate. After cell lysis, 150 μL of the aqueous layer was transferred from each well of a solvent-resistant 96-well microtiter plate to the wells of a new clear, flat-bottom 96-well microtiter plate. CPRG (4 mg/mL in phosphate-buffered saline) was added to each well in 25 μL volumes. Plates were incubated at 30° C. until the positive control wells developed a red color (approximately 30 min). The amount of processed CPRG substrate was assessed by measuring the absorbance of each well at 570 nm. Enzymatic activity was calculated using the following equation: adjusted Miller units=1000·Abs570/(OD600·t·V),
(§3) where t is the incubation time of substrate with lysate and V is the volume of culture lysed.
Because LuxR-type receptors are often unstable in solution, preventing the use of in vitro assays to directly assess small molecule agonism and antagonism, reporter gene assays represent a standard method for screening small-molecule libraries for LuxR-type receptor modulation. Previously reported strains for this purpose were used in the current study.^38 Synthetic N-butanoyl L-homoserine lactone (BHL), the native ligand of RhlR, was used as the positive control for receptor activation. Commonly, agonists are measured relative to maximum possible receptor activation within a particular assay medium;^40 because the dose-response curve of BHL is distinctly shallow in these RhlR reporters, a high concentration of BHL is required to maximally activate RhlR. In this study, activation of compounds was measured relative to that elicited by 1 mM BHL (the concentration of BHL used causes no aberrant growth effects in the reporter strain). […]

[2] = target: T1, RhlR; assay: E. coli RhlR reporter antagonism assay vs 10 μM BHL (JLD271/pJN105R2/pSC11-rhlI*); assay type: cell-based, P. aeruginosa; details: for inhibition at 10 µM: read-out: % inhibition (10 μM), compound at 10 μM in the presence of 10 μM BHL; for RhlR antagonist activity in words: E. coli reporter vs 10 μM BHL
Method: as §1
as §2, with “For RhlR antagonism assays, test compounds were competed against a concentration of BHL approximately equal to its EC50 value (10 μM).” left out
as §3
The RhlR-modulatory activity of the J library compounds was assessed in a heterologous reporter strain (E. coli JLD271 harboring plasmids pJN105R2 and pSC11-rhlI*) in order to isolate the RhlR receptor from upstream QS regulation (e.g. regulation by LasR). Thus, the extent to which compounds were directly modulating RhlR could be determined. These assays were performed by incubating compound-treated, mid-log phase E. coli reporter cells in 96-well microtiter plates, followed by Miller assay evaluation of ß-galactosidase activity.
RhlR agonism and antagonism screens of each compound were performed initially at 10 μM.

[3] = compound at 10 μM, RhlR activity relative to 1 mM BHL, E. coli reporter
[4] = negative = agonism stronger than 10 μM BHL alone
[5] = read-out: % inhibition (1 mM), compound at 1 mM in the presence of 10 μM BHL, negative = agonism stronger than 10 μM BHL alone

SMILES | activation at 10 µM [1, 3] [%] | inhibition at 10 µM [2, 4] [%] | inhibition at 1000 µM [2, 5] [%] | RhlR agonist activity in words ([1]; E. coli reporter) | further results
CC(C)CC(=O)NC1CCCC1 [RN39] | 0 | 11 | 31 |  | 
C=CCCCC(=O)N[C@H]1CCOC1=O [Compound J3] | 41 | -4 | -69 |  | 
O=C(CC1CC1)N[C@H]1CCOC1=O [Compound J25] | 70 | -47 | -108 | strong | EC50 [1]: 2.76 µM; RhlR agonist potency in words ([1]; E. coli reporter): significantly more potent than BHL; Emax [1]: 95%
CCCC(=O)N[C@@H]1CCOC1=O [RN5] | 2 | 1 | 11 |  | 
C#CCCC(=O)N[C@H]1CCOC1=O [Compound J7] | 45 | -7 | -83 | activities statistically insignificant from native ligand BHL | 
O=C(COc1ccc(I)cc1)NC1CCCC1 [RN17] | 1 | 6 |  |  | Maximum Inhibition (%) ([2]; E. coli reporter, relative to activation of 10 μM BHL alone): 31%; inhibition at 1000 µM ([2]; read-out: % inhibition (1 mM), screened at a maximal concentration of 100 microM (solubility), in the presence of 10 μM BHL): 24%
CCCCCCCCCC(=O)CC(=O)N[C@H]1CCOC1=O [OdDHL, N-(3-oxododecanoyl) HL, reference compound] |  |  |  |  | % activation [1, 3]: 5%; % inhibition (10 μM) ([2]; compound at 10 μM in the presence of 10 μM BHL, negative = agonism stronger than 10 μM BHL alone): 18%; % inhibition at 200 µM ([2]; screened at a maximal concentration of 200 microM (solubility), in the presence of 10 μM BHL): 53%
C=CCC(=O)N[C@H]1CCOC1=O [Compound J2] | 39 | 6 | -110 | comparably less active than their respective counterparts | 
CCCCC(=O)N[C@H]1CCOC1=O [Compound C5-AHL] | 53 | -18 | -91 | comparable RhlR activation to that of BHL | EC50 [1]: 10.8 µM; Emax [1]: 80%
CC1(C(=O)N[C@H]2CCOC2=O)CC1 [Compound J27, 1-methyl-cylclopropanoyl AHL] | 2 | 2 | 24 | inactive | RhlR antagonist activity in words [2]: capable of inhibiting RhlR activity to a statistically significant extent
O=C(N[C@H]1CCOC1=O)C1CC1 [Compound J23] | 32 | -2 | -69 | comparably less active than their respective counterparts | 
CCCC(=O)NCC1CCCO1 (stereo not drawn) [RN10] | 0 | 1 | 57 |  | 
CCC(CC)C(=O)N[C@H]1CCOC1=O [Compound J22] | 28 | 2 | -66 |  | 
CCCC(=O)NC1CCCC1 [RN4] | 0 | 9 | 45 |  | 
CC(C)C(=O)N[C@H]1CCOC1=O [Compound J17] | 62 | -30 | -112 | comparable RhlR activation to that of BHL | EC50 [1]: 4.89 µM; RhlR agonist potency in words ([1]; E. coli reporter): significantly more potent than BHL; Emax [1]: 95%
C#CCCCC(=O)N[C@H]1CCOC1=O [Compound J8] | 34 | -2 | -76 |  | 
CCC(=O)N[C@H]1CCOC1=O [Compound C3-AHL] | 25 | -5 | -66 | comparably less active than their respective counterparts | 
CCCS(=O)(=O)N[C@H]1CCOC1=O [RN6] | 1 | 8 | 55 |  | 
CCCC(=O)N[C@H]1CCNC1=O [RN9] | 1 | -1 | 35 |  | 
CC(C)(C)C(=O)N[C@H]1CCOC1=O [Compound J20] | 1 | 0 | 25 | inactive as agonists | RhlR antagonist activity in words [2]: capable of inhibiting RhlR activity to a statistically significant extent
CCC(C)(C)C(=O)N[C@H]1CCOC1=O [Compound J21] | 5 | 3 | 7 | inactive as agonists | 
C/C=C/CC(=O)N[C@H]1CCOC1=O [Compound J4] | 21 | 9 | -47 |  | 
C/C=C\CC(=O)N[C@H]1CCOC1=O [Compound J5] | 52 | -12 | -74 | activities statistically insignificant from native ligand BHL | EC50 [1]: 6.93 µM; Emax [1]: 80%
CCCC(=O)NCC1CCCN1 (stereo not drawn) [RN11] | 0 | -3 | -1 |  | 
CCCC(=O)NC1CCOC1 (stereo not drawn) [RN2] | 0 | -5 | 20 |  | 
CCCC(=O)O[C@H]1CCOC1=O [RN7] | 0 | 4 | 6 |  | 
